Experimental data taken from patent publication US5726195A, “Aminoacyl adenylate mimics as novel antimicrobial and antiparasitic agents” (Cubist Pharmaceuticals, Inc., priority 1996, dated 1998).
Converted amounts (≈) assume the structure as drawn.

Key:
[1] = system: M. catarrhalis ATCC 25240; test: Whole cell antimicrobial screen, MIC; type: cell-based; details: Moraxella catarrhalis, ATCC25240
How it was run: (§1)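 NCCLS microdilution; 5×10^4 cells/well; 2-fold serial dilutions, 0.1-500 μg/mL final; DMSO ≤1% final; overnight, 30-37° C; OD read; MIC = lowest conc. with no growth.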

S. pyogenes ATCC 8668 = test: Whole cell antimicrobial screen, MIC; type: cell-based; details: Streptococcus pyogenes, ATCC8668
How it was run: as §1

S. aureus ATCC 14154 = test: Whole cell antimicrobial screen, MIC; type: cell-based; details: Staphylococcus aureus, ATCC14154
How it was run: as §1

[2] = system: Streptococcus pyogenes (ATCC 8668); test: Mouse protection test against wild type Streptococcus pyogenes; type: in vivo, Streptococcus pyogenes; female CD-1 mice; details: for Protective % / Number of Alive: repeated at 4 hours, 7 days; for Number of Alive: of 5 mice
From the text: (§2) The mouse protection test is an industry standard for measuring the efficacy of a test compound in vivo [for examples of this model see J. J. Clement, et al., Antimicrobial Agents and Chemotherapy, 38 (5), 1071-1078, (1994)]. As exemplified below, this test was used to show the in vivo efficacy of the compounds of the present invention against bacteria.
The in vivo antibacterial activity of compound X was established by infecting female CD-1 mice (Charles River Lab, Massachusettes) weighing 20-24 g intraperitoneally with Streptococcus pyogenes inoculum. The inoculum was prepared from Streptococcus pyogenes (ATCC 8668) which was cultured in brain heart infusion broth (Baltimore Biological Laboratories,Maryland) at 37° C. for 18 hr, and then 0.1 ml of the overnight culture was diluted with the medium to 5.0 ml for reading its OD at 600 nm (0.017). The turbidity of a 0.5 McFarland standard is equivalent to OD600 0.1, or 10^8 cfu/ml. Then, 8×10^5 cfu of the bacteria (940 μl of 1:1000 overnight culture) was added to 20 ml of phosphate buffered saline (Sigma P-0261 ) containing 5% hog gastric mucin (Sigma M-2378). All animals were injected with 0.5 ml of the inoculum, equivalent to 2×10^4 cfu/mouse which is the dose causing ~100% death of the animals without treatment.
Compound X (50 mg) was dissolved in 5.0 ml of 0.05M Tris.HCl (pH 8.8) to give a solution of 10 mg/ml. This solution was serially diluted with 0.05 M Tris.HCl by 5-fold (1.0 ml to 5.0 ml) to give 2, 0.4 and 0.08 mg/ml solutions. The known antibiotic erythromycin (Sigma E-6376, in phosphate buffered saline, 1 mg/ml, pH 7.0) was used as a positive control. All the solutions were filtered with 0.2 μm Nalgene syringe filter. Immediately after the bacterial inoculation, group 1 animals were subcutaneously (sc) injected with 0.05M Tris.HCl (no antibiotic) and groups 2 to 5 were given compound X sc at 0.8, 4, 20, and 100 mg/kg, respectively. Group 6 animals received erythromycin sc at 10 mg/kg. These injections were repeated once at 4 hours after the inoculation for the respective groups. The injection volume at each time was 10 ml per kilogram of body weight. The 50% protective dose (PD50) is calculated on the basis of the number of mice surviving 7 days after inoculation.

[3] = system: Streptococcus pyogenes (ATCC 8668); test: as above; type: in vivo, Streptococcus pyogenes; female CD-1 mice; details: 0.08 mg/kg sc, repeated at 4 hours, 7 days
[4] = system: multidrug resistant Streptococcus pyogenes (#OTTO 209); test: Mouse protection test against multidrug resistant Streptococcus pyogenes; type: in vivo, Streptococcus pyogenes; female CD-1 mice; details: for Protective % / Number of Alive: repeated at 4 hours, 7 days; for Number of Alive: of 5 mice
From the text: as §2
The in vivo activity of compound X against multidrug resistant bacteria was established by infecting female CD-1 mice (Charles River Lab, Massachusettes) weighing 20-24 g intraperitoneally with multidrug resistant Streptococcus pyogenes inoculum. The inoculum was prepared from multidrug resistant Streptococcus pyogenes (resistant to erythromycin, tetracycline, and chloramphenicol, #OTTO 209 obtained from Dr. Pentti Huovinen, National Public Health Institute, Finland) which was cultured in brain heart infusion broth (Baltimore Biological Laboratories, Maryland) at 37° C. for 2 hr, and then 0.1 ml of the culture was diluted with the medium to 1.0 ml for reading its OD at 600 nm (0.12). The turbidity of a 0.5 McFarland standard is equivalent to OD600 0.1, or 10^8 cfu/ml. Then, 4×10^8 cfu of the bacteria (333 μl was added to 20 ml of phosphate buffered saline (Sigma P-0261 ) containing 10 % hog gastric mucin (Sigma M-2378). All animals were injected with 0.5 ml of the inoculum, equivalent to 10^7 cfu/mouse which is the dose causing ~100% death of the animals without treatment.
Compound X (60 mg) was dissolved in 6.0 ml of 0.05M Tris.HCl (pH 8.8) to give a solution of 10 mg/ml. This solution was serially diluted two times with 0.05M Tris.HCl by 5-fold (1.0 ml to 5.0 ml) to give 2 and 0.4 mg/ml solutions. The known antibiotic vancomycin HCl (Sigma V-2002, in normal saline, 1 mg/ml, pH 6.0-7.0) was used as a positive control. All the solutions were filtered with 0.2 μm Nalgene syringe filter. Immediately after the bacterial inoculation, group 1 animals were subcutaneously (sc) injected with 0.05M Tris.HCl (no antibiotic) and groups 2 to 4 were given compound X sc at 4, 20 and 100 mg/kg, respectively. Group 5 animals received vancomycin sc at 10 mg/kg. These injections were repeated once at 4 hours after the inoculation for the respective groups. The injection volume at each time was 10 ml per kilogram of body weight. The 50% protective dose (PD50) is calculated on the basis of the number of mice surviving 7 days after inoculation.

With CC[C@H](C)[C@H](N)C(=O)NS(=O)(=O)OC[C@H]1O[C@@H](CCn2nnc(-c3ccc(Oc4ccccc4)cc3)n2)[C@H](O)[C@@H]1O [Compound X, [S-(R*,R*)]-3,6-anhydro-1,2-dideoxy-1-[5-(4-phenoxyphenyl)-2H-tetrazol-2-yl]-D-allo-heptitol 7-(2-amino-3-methyl-1-oxopentyl)sulfamate] the MIC [1] was 25 µg/mL (≈ 42.3 µM), the MIC (S. pyogenes ATCC 8668) was 0.5 µg/mL (≈ 0.847 µM) and the MIC (S. aureus ATCC 14154) was 25 µg/mL (≈ 42.3 µM). The Protective % ([2]; 4 mg/kg sc) was 0%, the “Number of Alive” value ([2]; 4 mg/kg sc) was 0 and the Protective % ([2]; 20 mg/kg sc) was 40%. For the same molecule, the “Number of Alive” value ([2]; 20 mg/kg sc) was 2, the Protective % ([2]; 100 mg/kg sc) was 100% and the “Number of Alive” value ([2]; 100 mg/kg sc) was 5. For the same molecule, the ED50 ([2]; Streptococcus pyogenes, ATCC8668, 168 h, sc, mice surviving 7 days after inoculation, wild type, read-out: PD50 (50% protective dose)) was 21.1 mg/kg, the Protective % [3] was 0% and the “Number of Alive” value ([3]; of 5 mice) was 0. The Protective % ([4]; 4 mg/kg sc) was 0%, the “Number of Alive” value ([4]; 4 mg/kg sc) was 0 and the Protective % ([4]; 20 mg/kg sc) was 80%. The “Number of Alive” value ([4]; 20 mg/kg sc) was 4, the Protective % ([4]; 100 mg/kg sc) was 100% and the “Number of Alive” value ([4]; 100 mg/kg sc) was 5. It also gave an ED50 ([4]; Streptococcus pyogenes, 168 h, sc, mice surviving 7 days after inoculation, multidrug resistant, read-out: PD50 (50% protective dose)) of 16.5 mg/kg.
